Read-outs that look alike come from different tables or passages of the source.

The target in the assay is T1, full-length SARM1 (FL-SARM1) (Homo sapiens, UniProt Q6SZW1).
T1 sequence (Q6SZW1 28-724): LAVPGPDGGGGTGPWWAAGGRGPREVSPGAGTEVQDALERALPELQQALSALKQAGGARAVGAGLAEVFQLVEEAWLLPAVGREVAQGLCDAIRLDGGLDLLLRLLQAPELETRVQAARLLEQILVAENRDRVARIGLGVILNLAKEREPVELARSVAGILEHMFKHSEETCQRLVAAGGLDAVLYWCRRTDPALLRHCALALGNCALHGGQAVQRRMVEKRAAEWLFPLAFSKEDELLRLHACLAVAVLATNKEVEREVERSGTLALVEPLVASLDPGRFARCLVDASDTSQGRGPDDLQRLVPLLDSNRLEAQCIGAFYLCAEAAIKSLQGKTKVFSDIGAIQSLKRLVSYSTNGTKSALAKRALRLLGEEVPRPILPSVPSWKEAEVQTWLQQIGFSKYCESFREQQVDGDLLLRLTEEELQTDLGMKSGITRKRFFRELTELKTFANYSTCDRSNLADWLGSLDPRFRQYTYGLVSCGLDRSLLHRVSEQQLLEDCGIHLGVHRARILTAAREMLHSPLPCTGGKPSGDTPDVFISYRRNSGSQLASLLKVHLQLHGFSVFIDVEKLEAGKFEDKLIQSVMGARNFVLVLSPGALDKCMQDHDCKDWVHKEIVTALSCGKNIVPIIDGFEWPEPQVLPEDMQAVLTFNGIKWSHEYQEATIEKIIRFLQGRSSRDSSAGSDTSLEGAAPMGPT
Briefly: FL-SARM1 cellular lysate assay (NAD/NADH-Glo detection of remaining NAD+, NMN-activated).

[1] abbreviates: Activity (μM) (IC50), 11 point curve.
Where [2] appears, read: read-out: Activity (IC50 class), 11 point curve.
Setting [3] is: Activity (IC50 class), 11 point curve.

Method: Preparation of full-length SARM1 (FL-SARM1) lysate: HEK293T cells (ATCC: CRL-3216) were grown on 150 mm TC-treated dishes to 80-90% confluency in complete DMEM (DMEM (Thermo Fisher: 11965175) supplemented with 10% HI—FBS (VWR: 10802-772), 1× Pen/Strep (Thermo Fisher: 15140122), 1×NEAA (Thermo Fisher: 1140050), 1× glutamax (Thermo Fisher: 35050061), and 1 mM sodium pyruvate (Thermo Fisher: 11360070)) at 37° C. and 5% CO2. One hour prior to transfection, the media was replaced with fresh, 37° C. complete DMEM (20 mL per one 150 mm dish) supplemented with additional 10 mM glucose (Alfa Aesar AAJ60067EQE). Per one 150 mm dish, 30 μg FL-SARM1 (SEQ. ID. 1; cloned in-house) plasmid was dissolved in 1 mL DMEM at ambient temperature and were mixed by inverting the tube 8-10 times. 90 μL of GenJet™ in vitro DNA transfection reagent (Ver2) was dissolved in 1 mL DMEM at ambient temperature and were mixed by inverting the tube 8-10 times. The plasmid and transfection agent solutions were combined, mixed by 8-10 inversions and incubated for 10 minutes at ambient temperature. 2 mL of this transfection mixture was added to each dish containing HEK293T cells as prepared above followed by a gentle mixing of 4-5 horizontal rotations. The dishes were incubated at 37° C. and 5% CO2 for 24 h. The dishes were removed from the incubator, the medium was aspirated and the cells were scraped off using cell scrapers in ice-cold 1×PBS (5 mL/dish, Thermo Fisher Scientific 10010023). The collected cells were centrifuged at 300 g for 5 minutes at 4° C. The supernatant was aspirated and the pellet was frozen at −80° C. until needed. The cell pellet from 30 dishes was dissolved in 30 mL 1×PBS supplemented with 4 tablets of Complete, Mini EDTA-free protease inhibitor cocktail at 4° C. This mixture was sonicated on ice for 10 minutes at 50% amplitude with a 1 second on/1 second off interval using a Model 120 sonicator (Thermo Fisher Scientific, FB120110). The lysate was centrifuged at 16000 g for 10 minutes at 4° C.
To a white 384-well Proxiplate (PerkinElmer, PE-6008280) was added 50 nL/well of a DMSO solution containing test compounds followed by 7.5 μL/well of a 0.067 mg/mL solution of SARMi cellular lysate in reaction buffer (DPBS containing CHAPSO (0.1%) and fatty acid free BSA (0.032%)). The plate was centrifuged for 1 minute at 1000 RPM and then placed in an incubator at 23° C. for 15 minutes. To the wells were added 2.5 μL/well of a solution containing 40 M NAD^+ and 4 mM nicotinamide mononucleotide (NMN) in reaction buffer. The plate was centrifuged for 1 min at 1000 RPM, the plate was sealed and placed in an incubator at 23° C. for 3.5 hours before adding 3.5 μL/well of NAD/NADH-Glo™ solution (preparation as described by Promega using the extended detection protocol). The plate was centrifuged for 1 minute at 1000 RPM and then incubated at 23° C. for 20 minutes. 1 μL/well of a 3.625 mM solution of menadione in DMSO was added and the plate was centrifuged for 1 minute at 1000 RPM. Relative light units (RLU) were recorded using an Envision plate reader at a height of 6.5 mm.
IC50 values were calculated from an 11 point curve using ½ log dilutions using a four-parameter logistic regression curve fit.

As a reminder, the IC50 is the concentration at which inhibition is half-maximal. For `Cc1ccc(NC(=O)[C@H]2CC[C@@H](C)CN2c2ncccn2)cc1-c1ncccn1` (single isomer, unassigned) [Example 205, cis-5-methyl-N-(4-methyl-3-(pyrimidin-2-yl)phenyl)-1-(pyrimidin-2-yl)piperidine-2-carboxamide], the IC50 is 0.3 µM under setting [1] and 0.0001 to 1 µM under setting [2].

Turning to `Cc1ccc(NC(=O)[C@H]2CC[C@@H](C)CN2c2ncccn2)cc1-c1ncccn1` (single isomer, unassigned) [Example 206, cis-5-methyl-N-(4-methyl-3-(pyrimidin-2-yl)phenyl)-1-(pyrimidin-2-yl)piperidine-2-carboxamide], the IC50 was 0.7 µM under setting [1] and 0.0001 to 1 µM under setting [2].

As to `Cc1ccc(NC(=O)C2COC(C)(C)CN2c2ncccn2)cc1-c1ncccn1` (single isomer, unassigned) [Example 207, 6,6-dimethyl-N-(4-methyl-3-(pyrimidin-2-yl)phenyl)-4-(pyrimidin-2-yl)morpholine-3-carboxamide], the IC50 was greater than 10 µM under setting [3] and greater than 50 µM under setting [1].

Take `Cc1ccc(NC(=O)C2COC(C)(C)CN2c2ncccn2)cc1-c1ncccn1` (single isomer, unassigned) [Example 208, 6,6-dimethyl-N-(4-methyl-3-(pyrimidin-2-yl)phenyl)-4-(pyrimidin-2-yl)morpholine-3-carboxamide]: the IC50 by setting is: under setting [3], 1 to 10 µM; under setting [1], 3.3 µM.

For `COC(C)[C@@]12CC(C[C@@H](C)C1)N2C(=O)Nc1ccc(C(F)(F)F)c(-c2nccnn2)c1` (single isomer, unassigned) [Example 209, cis-N-(3-(1,2,4-triazin-3-yl)-4-(trifluoromethyl)phenyl)-1-(1-methoxyethyl)-3-methyl-6-azabicyclo[3.1.1]heptane-6-carboxamide], the IC50 reads like this: under setting [1], 0.5 µM; under setting [2], 0.0001 to 1 µM.

Regarding `COC(C)[C@@]12CC(C[C@@H](C)C1)N2C(=O)Nc1ccc(C(F)(F)F)c(-c2nccnn2)c1` (single isomer, unassigned) [Example 210, cis-N-(3-(1,2,4-triazin-3-yl)-4-(trifluoromethyl)phenyl)-1-(1-methoxyethyl)-3-methyl-6-azabicyclo[3.1.1]heptane-6-carboxamide], the IC50 was greater than 10 µM under setting [3] and greater than 50 µM under setting [1].

As for `COC(C)[C@@]12CC(C[C@@H](C)C1)N2C(=O)Nc1ccc(C(F)(F)F)c(-c2nccnn2)c1` (single isomer, unassigned) [Example 211, cis-N-(3-(1,2,4-triazin-3-yl)-4-(trifluoromethyl)phenyl)-1-(1-methoxyethyl)-3-methyl-6-azabicyclo[3.1.1]heptane-6-carboxamide], the IC50 under setting [1] was 0.004 µM and the IC50 under setting [2] lay within 0.0001 to 1 µM.

In turn, `COC(C)[C@@]12CC(C[C@@H](C)C1)N2C(=O)Nc1ccc(C(F)(F)F)c(-c2nccnn2)c1` (single isomer, unassigned) [Example 212, cis-N-(3-(1,2,4-triazin-3-yl)-4-(trifluoromethyl)phenyl)-1-(1-methoxyethyl)-3-methyl-6-azabicyclo[3.1.1]heptane-6-carboxamide] displayed an IC50 under setting [3] of 1 to 10 µM and an IC50 under setting [1] of 9.6 µM.

Regarding `Cc1cc(F)c(NC(=O)[C@@H]2CC2(F)F)cc1-c1ccccn1` (stereo in doubt) [Example 143, 2,2-difluoro-N-(2-fluoro-4-methyl-5-pyridin-2-ylphenyl)cyclopropane-1-carboxamide], the IC50 by setting is: under setting [3], 1 to 10 µM; under setting [1], 1.8 µM.

For the compound `COC(=O)N1C[C@@H]2C[C@H]1CN2C(=O)Nc1ccc(C)c(-c2ccccn2)c1` [Example 1, (1S,4S)-Methyl 5-((4-methyl-3-(pyridin-2-yl)phenyl)carbamoyl)-2,5-diazabicyclo[2.2.1]heptane-2-carboxylate], the IC50 runs as follows: under setting [3], greater than 10 µM; under setting [1], 23 µM.

With `Cc1ccc(NC(=O)N2C3CC2CN(C(C)C(F)(F)F)C3)cc1-c1ccccn1` (stereo not drawn) [Example 2, N-(4-Methyl-3-(pyridin-2-yl)phenyl)-3-(1,1,1-trifluoropropan-2-yl)-3,6-diazabicyclo[3.1.1]heptane-6-carboxamide], the IC50 was 0.7 µM under setting [1] and 0.0001 to 1 µM under setting [2].

In turn, `Cc1cc(F)c(NC(=O)N2C3CC2CN(CC(F)(F)F)C3)cc1-c1ccccn1` [Example 3, N-(2-Fluoro-4-methyl-5-(pyridin-2-yl)phenyl)-3-(2,2,2-trifluoroethyl)-3,6-diazabicyclo[3.1.1]heptane-6-carboxamide] showed an IC50 under setting [3] of 1 to 10 µM and an IC50 under setting [1] of 1.2 µM.

Take `Cc1ccc(NC(=O)N2C3CC2CN(CC(F)(F)F)C3)cc1-c1ccccn1` [Example 4, N-(4-methyl-3-(pyridin-2-yl)phenyl)-3-(2,2,2-trifluoroethyl)-3,6-diazabicyclo[3.1.1]heptane-6-carboxamide]: the IC50 under setting [1] amounted to 0.4 µM and the IC50 under setting [2] fell in the range of 0.0001 to 1 µM.

As for `Cc1ccc(NC(=O)N2C3CC2CN(CC(F)F)C3)cc1-c1ccccn1` [Example 5, 3-(2,2-difluoroethyl)-N-(4-methyl-3-(pyridin-2-yl)phenyl)-3,6-diazabicyclo[3.1.1]heptane-6-carboxamide], it took 0.8 µM to reach half-maximal inhibition under setting [1] (IC50) and the IC50 under setting [2] lay in the range of 0.0001 to 1 µM.

As for `Cc1ccc(NC(=O)N2C3CC2CN(C2CCC2)C3)cc1-c1ccccn1` [Example 6, 3-Cyclobutyl-N-(4-methyl-3-(pyridin-2-yl)phenyl)-3,6-diazabicyclo[3.1.1]heptane-6-carboxamide], the IC50 was 1 to 10 µM under setting [3] and 4.2 µM under setting [1].

As to `CCN1CC2CC(C1)N2C(=O)Nc1ccc(C)c(-c2ccccn2)c1` [Example 7, 3-Ethyl-N-(4-methyl-3-(pyridin-2-yl)phenyl)-3,6-diazabicyclo[3.1.1]heptane-6-carboxamide], the IC50 was 1 to 10 µM under setting [3] and 4 µM under setting [1].

As to `Cc1ccc(NC(=O)N2C3CCC2c2ccccc23)cc1-c1ccccn1` [Example 8, N-[4-Methyl-3-(2-pyridyl)phenyl]-11-azatricyclo[6.2.1.02,7]undeca-2,4,6-triene-11-carboxamide], the IC50 reads like this: under setting [1], 0.06 µM; under setting [2], 0.0001 to 1 µM.

In the case of `COC(=O)C12CCCC(C1)N2C(=O)Nc1ccc(C)c(-c2ccccn2)c1` (stereo not drawn) [Example 9, Methyl 6-[[4-methyl-3-(2-pyridyl)phenyl]carbamoyl]-6-azabicyclo[3.1.1]heptane-1-carboxylate], the IC50 under setting [1] was 0.1 µM and the IC50 under setting [2] fell in the range of 0.0001 to 1 µM.

Turning to `Cc1ccc(NC(=O)N2[C@@H]3C[C@H](C)C[C@H]2C3)cc1-c1ccccn1` [Example 10, trans-3-Methyl-N-(4-methyl-3-(pyridin-2-yl)phenyl)-6-azabicyclo[3.1.1]heptane-6-carboxamide], the IC50 runs as follows: under setting [1], 0.01 µM; under setting [2], 0.0001 to 1 µM.

Take `Cc1ccc(NC(=O)N2[C@@H]3C[C@@H](C)C[C@H]2C3)cc1-c1ccccn1` [Example 11, cis-3-Methyl-N-(4-methyl-3-(pyridin-2-yl)phenyl)-6-azabicyclo[3.1.1]heptane-6-carboxamide]: half-maximal inhibition under setting [1] (IC50) required 0.01 µM and the IC50 under setting [2] lay in the range of 0.0001 to 1 µM.

Regarding `Cc1ccc(NC(=O)N2C[C@@H]3C[C@H]2CN3c2ccccc2)cc1-c1ccccn1` [Example 13, (1S,4S)-N-(4-methyl-3-(pyridin-2-yl)phenyl)-5-phenyl-2,5-diazabicyclo[2.2.1]heptane-2-carboxamide], the IC50 is, setting by setting: under setting [1], 0.7 µM; under setting [2], 0.0001 to 1 µM.

For `Cc1ccc(NC(=O)N2C3CCCC2CC3)cc1-c1ccc(F)cn1` [Example 14, N-(3-(5-fluoropyridin-2-yl)-4-methylphenyl)-8-azabicyclo[3.2.1]octane-8-carboxamide], the IC50 is, setting by setting: under setting [1], 0.1 µM; under setting [2], 0.0001 to 1 µM.

For the compound `Cc1ccc(NC(=O)N2C3CCC2c2c(F)cncc23)cc1-c1ccccn1` (stereo not drawn) [Example 15, 4-fluoro-N-(4-methyl-3-(pyridin-2-yl)phenyl)-5,6,7,8-tetrahydro-5,8-epiminoisoquinoline-9-carboxamide], the IC50 was 0.4 µM under setting [1] and 0.0001 to 1 µM under setting [2].

Regarding `Cc1ccc(NC(=O)N2CC3CCC2c2ccccc23)cc1-c1ccccn1` (stereo not drawn) [Example 16, N-(4-methyl-3-(pyridin-2-yl)phenyl)-1,2,3,4-tetrahydro-1,4-(epiminomethano)naphthalene-10-carboxamide], the IC50 by setting is: under setting [3], 1 to 10 µM; under setting [1], 1.1 µM.

Regarding `Cc1ccc(NC(=O)N2C3CCCC2C3)cc1-c1ccccn1` [Example 17, N-(4-methyl-3-(pyridin-2-yl)phenyl)-6-azabicyclo[3.1.1]heptane-6-carboxamide], the midpoint of inhibition under setting [1], the IC50, lay at 0.1 µM and the IC50 under setting [2] was 0.0001 to 1 µM.

Consider `O=C(Nc1ccc(C(F)(F)F)c(-c2ccccn2)c1)N1C2CCCC1C2` [Example 18, N-(3-(pyridin-2-yl)-4-(trifluoromethyl)phenyl)-6-azabicyclo[3.1.1]heptane-6-carboxamide], for which the IC50 is, setting by setting: under setting [1], 0.3 µM; under setting [2], 0.0001 to 1 µM.

In the case of `N#CCc1ccc(NC(=O)N2C3CCCC2C3)cc1-c1ccccn1` [Example 19, N-(4-(cyanomethyl)-3-(pyridin-2-yl)phenyl)-6-azabicyclo[3.1.1]heptane-6-carboxamide], the IC50 under setting [1] was found to be 0.2 µM and the IC50 under setting [2] lay within 0.0001 to 1 µM.

The record behind these values is patent US20250171462A1 (NICO Therapeutics, Inc., priority 2022, published 2025).
